Measurements: PubChem BioAssay AID330 (DTP/NCI, 2004)
Several values for one entry are separate records, joined by “and”; a condition that tells them apart may be missing. Identical values can stand only once. Toxic doses and inconclusive results are not listed. How the source made its calls: active means survival T/C of 150% or more; inactive means T/C below 125% in these data.

Test system: P388 leukemia ip, CD2F1 mice, survival T/C
Assay: NCI In Vivo Anticancer Drug Screen. Data for tumor model P388 Leukemia (intraperitoneal) in CD2F1 (CDF1) mice
Details: endpoint: median survival time, higher = longer survival
Outline: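 Mice carrying the transplanted tumor received test compound or vehicle. Survival was recorded in each group, and the value is the treated-group measurement divided by that of the vehicle-treated control group.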

[1] = dose: 60.0 mg/kg/injection, schedule: Q01DX005 (ip), vehicle: saline with Tween-80
[2] = dose: 50.0 mg/kg/injection, schedule: Q01DX005 (ip), vehicle: Klucel (hydroxypropylcellulose) (HPC)
[3] = dose: 100.0 mg/kg/injection, schedule: Q01DX005 (ip), vehicle: Klucel (hydroxypropylcellulose) (HPC)
[4] = dose: 120.0 mg/kg/injection, schedule: Q01DX005 (ip), vehicle: saline with Tween-80
[5] = dose: 240.0 mg/kg/injection, schedule: Q01DX005 (ip), vehicle: saline with Tween-80
[6] = dose: 200.0 mg/kg/injection, schedule: Q01DX005 (ip), vehicle: Klucel (hydroxypropylcellulose) (HPC)
[7] = dose: 100.0 mg/kg/injection, schedule: Q04DX003 (ip), vehicle: saline with Tween-80
[8] = dose: 200.0 mg/kg/injection, schedule: Q04DX003 (ip), vehicle: saline with Tween-80
[9] = dose: 400.0 mg/kg/injection, schedule: Q04DX003 (ip), vehicle: saline with Tween-80

Measured: T/C

O=C(CC(=O)c1ccc(Cl)s1)C(=O)NC1C2CC3CC(C2)CC1C3 (stereo not given)
inactive: dose: 7.5 mg/kg/injection, schedule: Q01DX005 (ip), vehicle: saline with Tween-80 100 % of control | dose: 15.0 mg/kg/injection, schedule: Q01DX005 (ip), vehicle: saline with Tween-80 102 % of control | dose: 30.0 mg/kg/injection, schedule: Q01DX005 (ip), vehicle: saline with Tween-80 100 % of control | [1] 94 % of control and 95 % of control

CC[n+]1c(/C=C/c2ccc(N(CCC(=O)O)CCC(=O)O)cc2C)sc2ccccc21
inactive: dose: 12.5 mg/kg/injection, schedule: Q04DX003 (ip), vehicle: saline with Tween-80 99 % of control | dose: 25.0 mg/kg/injection, schedule: Q04DX003 (ip), vehicle: saline with Tween-80 95 % of control | dose: 50.0 mg/kg/injection, schedule: Q04DX003 (ip), vehicle: saline with Tween-80 100 % of control

O=C1OC(C(Cl)(Cl)Cl)Nc2ccccc21 (stereo not given)
inactive: [2] 111 % of control | [3] 111 % of control

CC1=C(/C=C/c2ccc(N(C)C)cc2)C(C)C(c2ccc(N(C)C)cc2)CC1=O (stereo not given)
inactive: dose: 25.0 mg/kg/injection, schedule: Q01DX001 (ip), vehicle: Klucel (hydroxypropylcellulose) (HPC) 88 % of control | dose: 50.0 mg/kg/injection, schedule: Q01DX001 (ip), vehicle: Klucel (hydroxypropylcellulose) (HPC) 94 % of control | dose: 100.0 mg/kg/injection, schedule: Q01DX001 (ip), vehicle: Klucel (hydroxypropylcellulose) (HPC) 93 % of control

CCOC(=O)C1=C(C)Oc2cc3c(cc2C1c1ccc(OC)cc1)OCO3 (stereo not given)
inactive: [1] 105 % of control | [4] 105 % of control | [5] 94 % of control

COC1=CC(=O)C2CC=CC(CC(=O)O)C2(C)C1=O (stereo not given)
inactive: [2] 108 % of control | [3] 103 % of control

CC1(C)C(=O)/C(=C/c2ccccc2N)Cc2ccccc21
inactive: [2] 90 % of control | [3] 107 % of control | [6] 102 % of control

Nc1cccc(C(=O)c2cccc(N)c2)c1
inactive: [7] 100 % of control | [8] 95 % of control | [9] 100 % of control

CC[N+](C)(CC)CC(C)C1NS(=O)(=O)c2ccccc21 (stereo not given)
inactive: dose: 25.0 mg/kg/injection, schedule: Q04DX003 (ip), vehicle: saline 104 % of control | dose: 50.0 mg/kg/injection, schedule: Q04DX003 (ip), vehicle: saline 98 % of control | dose: 100.0 mg/kg/injection, schedule: Q04DX003 (ip), vehicle: saline 98 % of control and 100 % of control

CN(C)CCC(=O)/C=C/c1ccc(Cl)c(Cl)c1
inactive: dose: 6.25 mg/kg/injection, schedule: Q01DX009 (ip), vehicle: saline with Tween-80 92 % of control | dose: 12.5 mg/kg/injection, schedule: Q01DX009 (ip), vehicle: saline with Tween-80 101 % of control | dose: 25.0 mg/kg/injection, schedule: Q01DX009 (ip), vehicle: saline with Tween-80 113 % of control | dose: 50.0 mg/kg/injection, schedule: Q01DX009 (ip), vehicle: saline with Tween-80 116 % of control

COC1N(Cc2ccccc2)C=C2C(=O)NC(=O)C3NC(c4ccccc4)C1(C)C23C (stereo not given)
inactive: [2] 90 % of control | [3] 91 % of control | [6] 88 % of control and 92 % of control

CN(Cc1cnc2nc(N)nc(N)c2n1)c1c(Cl)cc(C(=O)NC(CCC(=O)O)C(=O)O)cc1Cl (stereo not given)
inactive: dose: 25.0 mg/kg/injection, schedule: Q01DX005 (iv), vehicle: suspension in saline 119 % of control
109 % of control and 240 % of control: [9]
active: dose: 25.0 mg/kg/injection, schedule: Q01DX005 (ip), vehicle: suspension in saline 158 % of control | dose: 50.0 mg/kg/injection, schedule: Q01DX005 (ip), vehicle: suspension in saline 169 % of control | dose: 100.0 mg/kg/injection, schedule: Q01DX005 (ip), vehicle: suspension in saline 178 % of control | dose: 100.0 mg/kg/injection, schedule: Q01DX005 (iv), vehicle: suspension in saline 165 % of control | [7] 195 % of control | dose: 200.0 mg/kg/injection, schedule: Q01DX005 (ip), vehicle: suspension in saline 190 % of control | [8] 222 % of control | dose: 264.0 mg/kg/injection, schedule: Q04DX003 (ip), vehicle: saline with Tween-80 245 % of control | dose: 600.0 mg/kg/injection, schedule: Q04DX003 (ip), vehicle: saline with Tween-80 259 % of control

CC1(OC(=O)c2ccccc2)CC(C)(C)[N+]([O-])=N1 (stereo not given)
inactive: dose: 12.5 mg/kg/injection, schedule: Q01DX005 (ip), vehicle: other 97 % of control | dose: 25.0 mg/kg/injection, schedule: Q01DX005 (ip), vehicle: other 98 % of control | dose: 50.0 mg/kg/injection, schedule: Q01DX005 (ip), vehicle: other 100 % of control | dose: 100.0 mg/kg/injection, schedule: Q01DX005 (ip), vehicle: other 90 % of control | dose: 200.0 mg/kg/injection, schedule: Q01DX005 (ip), vehicle: other 93 % of control

CCCCCCCCCCN(CCCCCCCCCC)CC(O)c1ccc2nc3c(cc2c1)CCCC3 (stereo not given)
inactive: dose: 12.5 mg/kg/injection, schedule: Q01DX005 (ip), vehicle: saline with Tween-80 101 % of control | dose: 25.0 mg/kg/injection, schedule: Q01DX005 (ip), vehicle: saline with Tween-80 101 % of control | dose: 50.0 mg/kg/injection, schedule: Q01DX005 (ip), vehicle: saline with Tween-80 102 % of control and 94 % of control

O=C(O)O
inactive: dose: 25.0 mg/kg/injection, schedule: Q01DX009 (ip), vehicle: saline 102 % of control | dose: 50.0 mg/kg/injection, schedule: Q01DX009 (ip), vehicle: saline 94 % of control and 93 % of control | dose: 100.0 mg/kg/injection, schedule: Q01DX009 (ip), vehicle: saline with Tween-80 100 % of control | dose: 100.0 mg/kg/injection, schedule: Q01DX009 (ip), vehicle: saline 99 % of control and 95 % of control | dose: 200.0 mg/kg/injection, schedule: Q01DX009 (ip), vehicle: saline with Tween-80 95 % of control | dose: 200.0 mg/kg/injection, schedule: Q01DX009 (ip), vehicle: saline 98 % of control and 102 % of control | dose: 200.0 mg/kg/injection, schedule: Q04DX003 (ip), vehicle: saline sonified 100 % of control | dose: 0.25 % in 0.5 ml injection vol, schedule: Q01DX009 (ip), vehicle: water 98 % of control | dose: 400.0 mg/kg/injection, schedule: Q04DX003 (ip), vehicle: saline sonified 100 % of control | dose: 0.5 % in 0.5 ml injection vol, schedule: Q01DX009 (ip), vehicle: water 100 % of control | dose: 1.0 % in 0.5 ml injection vol, schedule: Q01DX009 (ip), vehicle: water 102 % of control | dose: 4.0 % in 0.5 ml injection vol, schedule: Q01DX009 (ip), vehicle: water 100 % of control and 102 % of control | dose: 8.0 % in 0.5 ml injection vol, schedule: Q01DX009 (ip), vehicle: water 99 % of control and 95 % of control

CC12CCC3C(CCC4N(CCCl)CCCC34C)C1CCC2O (stereo not given)
inactive: dose: 25.0 mg/kg/injection, schedule: Q01DX001 (ip), vehicle: saline 101 % of control | dose: 50.0 mg/kg/injection, schedule: Q01DX001 (ip), vehicle: saline 109 % of control | dose: 100.0 mg/kg/injection, schedule: Q01DX001 (ip), vehicle: saline 111 % of control

O=NNc1nccnn1
inactive: dose: 3.12 mg/kg/injection, schedule: Q01DX009 (ip), vehicle: water 105 % of control | dose: 6.25 mg/kg/injection, schedule: Q01DX009 (ip), vehicle: water 107 % of control | dose: 12.5 mg/kg/injection, schedule: Q01DX009 (ip), vehicle: water 105 % of control | dose: 25.0 mg/kg/injection, schedule: Q01DX009 (ip), vehicle: water 108 % of control and 111 % of control | dose: 50.0 mg/kg/injection, schedule: Q01DX009 (ip), vehicle: water 114 % of control and 118 % of control | dose: 100.0 mg/kg/injection, schedule: Q01DX009 (ip), vehicle: water 120 % of control | dose: 200.0 mg/kg/injection, schedule: Q01DX009 (ip), vehicle: water 119 % of control

COC1=CC(=O)C([C@@H]2COc3cc(O)ccc3C2)=CC1=O
inactive: dose: 3.75 mg/kg/injection, schedule: Q01DX009 (ip), vehicle: Klucel (hydroxypropylcellulose) (HPC) 95 % of control | dose: 7.5 mg/kg/injection, schedule: Q01DX009 (ip), vehicle: Klucel (hydroxypropylcellulose) (HPC) 99 % of control | dose: 15.0 mg/kg/injection, schedule: Q01DX009 (ip), vehicle: Klucel (hydroxypropylcellulose) (HPC) 95 % of control | dose: 30.0 mg/kg/injection, schedule: Q01DX009 (ip), vehicle: Klucel (hydroxypropylcellulose) (HPC) 98 % of control

OC12CC3CC(CN1)CC(C3)C2
inactive: [2] 109 % of control | [3] 99 % of control | [6] 95 % of control

CC(C)(C)OOC(=O)c1ccc2ccccc2c1
inactive: [1] 109 % of control | [4] 97 % of control | [5] 93 % of control
